Target: T1, CDK12 (Homo sapiens, UniProt Q9NYV4)
T1 construct: endogenous in cells; host or cells: CAL-120 human breast cancer cells (DSMZ ACC 459)
Test: CDK12 protein level in CAL-120 cells (Protein Simple)
Assay type: cell-based
Settings: 18 h, CDK12/HSP90 peak area ratio, read-out: CDK12 protein level in CAL-120 breast ca cells DC50-[mol/l] (median)
Experimental: CAL-120 human breast cancer cells (DSMZ ACC 459) were seeded at 300,000 cells/well in 6-well plates containing 2 mL of growth medium (DMEM, 10% FCS, glutamine) and incubated for 24 h at 37° C. in an humidified incubator. Test compounds were added at various concentrations, control wells received solvent (DMSO), and the plates were incubated for another 18 h at 37° C. Cells were washed 2 times with PBS and lysed in 75 microL lysis buffer (MSD-Puffer (MSD, #R^60TX-2), +1% SDS+PhosSTOP (Roche #04906837001)+ complete mini (Roche #04693159001)) by scraping. The lysates were pushed 2 times through Qiashedders followed by centrifugation at 14,000 rpm for 30-50 sec. The supernatant was stored at −20° C. […] CDK12 and HSP90 (loading control) were detected using anti-human CDK12 antibody (Cell Signaling Technologies (CST) #11793) at 1:25 dilution and anti-human HSP90 antibody (CST #4877) at 1:5,000 dilution. CDK12 and HSP90 peak areas were determined using Protein Simple Compass software. Ratio of CDK12/HSP90 peak areas were calculated for each sample, and DC50 values (degrading concentration to achieve 50% reduction relative to vehicle treated control) were determined by means of a 4 parameter fit.

T1 sequence (Q9NYV4 whole entry): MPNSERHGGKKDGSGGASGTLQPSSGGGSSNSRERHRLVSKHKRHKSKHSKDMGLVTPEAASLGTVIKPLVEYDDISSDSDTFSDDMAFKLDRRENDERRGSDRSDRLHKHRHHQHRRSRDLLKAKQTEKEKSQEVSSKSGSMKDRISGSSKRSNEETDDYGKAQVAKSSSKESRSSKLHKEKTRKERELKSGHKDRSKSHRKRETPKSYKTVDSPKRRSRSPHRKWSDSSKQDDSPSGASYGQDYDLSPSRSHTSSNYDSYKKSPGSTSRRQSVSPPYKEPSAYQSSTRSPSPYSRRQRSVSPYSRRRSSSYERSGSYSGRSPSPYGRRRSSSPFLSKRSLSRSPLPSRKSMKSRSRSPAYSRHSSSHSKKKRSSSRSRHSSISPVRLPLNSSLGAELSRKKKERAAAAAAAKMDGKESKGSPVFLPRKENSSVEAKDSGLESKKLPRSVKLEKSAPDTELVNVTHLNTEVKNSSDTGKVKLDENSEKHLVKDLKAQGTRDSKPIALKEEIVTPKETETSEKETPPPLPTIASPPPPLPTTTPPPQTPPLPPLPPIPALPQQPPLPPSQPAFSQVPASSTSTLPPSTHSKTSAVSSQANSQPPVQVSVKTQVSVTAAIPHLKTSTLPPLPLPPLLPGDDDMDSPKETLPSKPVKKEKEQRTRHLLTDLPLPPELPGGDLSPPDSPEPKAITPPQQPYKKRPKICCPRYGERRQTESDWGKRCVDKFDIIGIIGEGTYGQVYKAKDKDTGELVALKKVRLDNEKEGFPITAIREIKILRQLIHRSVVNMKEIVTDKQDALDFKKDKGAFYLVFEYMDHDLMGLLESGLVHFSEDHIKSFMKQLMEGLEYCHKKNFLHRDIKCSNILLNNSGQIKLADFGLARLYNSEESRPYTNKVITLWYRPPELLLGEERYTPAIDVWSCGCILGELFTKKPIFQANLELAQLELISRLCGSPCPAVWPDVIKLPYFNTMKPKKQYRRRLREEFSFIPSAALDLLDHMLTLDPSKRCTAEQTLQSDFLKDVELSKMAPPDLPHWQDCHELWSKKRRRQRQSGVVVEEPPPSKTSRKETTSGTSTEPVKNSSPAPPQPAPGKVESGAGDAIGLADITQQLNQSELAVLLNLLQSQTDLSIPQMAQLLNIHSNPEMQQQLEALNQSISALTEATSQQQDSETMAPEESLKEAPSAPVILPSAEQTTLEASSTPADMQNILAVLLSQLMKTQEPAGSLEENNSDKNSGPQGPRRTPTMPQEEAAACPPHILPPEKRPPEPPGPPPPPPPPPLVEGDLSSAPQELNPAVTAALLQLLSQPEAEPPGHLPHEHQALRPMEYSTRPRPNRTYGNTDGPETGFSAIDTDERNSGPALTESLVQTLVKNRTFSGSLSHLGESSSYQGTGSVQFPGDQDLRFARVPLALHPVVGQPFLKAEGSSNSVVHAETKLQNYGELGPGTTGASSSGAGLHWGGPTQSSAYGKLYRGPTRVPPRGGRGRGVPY
T1 sequence (O75909 whole entry partner): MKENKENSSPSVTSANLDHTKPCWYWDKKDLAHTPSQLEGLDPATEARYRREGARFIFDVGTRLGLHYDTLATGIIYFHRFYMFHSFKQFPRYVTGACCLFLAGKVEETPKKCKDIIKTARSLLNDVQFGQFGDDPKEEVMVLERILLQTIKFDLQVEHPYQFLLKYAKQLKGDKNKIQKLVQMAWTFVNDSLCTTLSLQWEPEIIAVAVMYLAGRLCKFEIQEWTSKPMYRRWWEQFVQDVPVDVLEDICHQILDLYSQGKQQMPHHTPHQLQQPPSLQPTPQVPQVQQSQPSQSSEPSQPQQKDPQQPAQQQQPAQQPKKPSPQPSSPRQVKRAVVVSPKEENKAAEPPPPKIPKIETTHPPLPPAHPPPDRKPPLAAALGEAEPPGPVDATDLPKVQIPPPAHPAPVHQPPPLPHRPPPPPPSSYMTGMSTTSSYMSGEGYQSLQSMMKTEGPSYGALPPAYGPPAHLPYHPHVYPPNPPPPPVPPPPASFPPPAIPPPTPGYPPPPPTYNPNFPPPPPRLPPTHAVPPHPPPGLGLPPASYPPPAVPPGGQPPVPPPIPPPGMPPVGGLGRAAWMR

Compound	DC50 [nM]
Brc1cnc2c(NCc3nc4ccccc4[nH]3)nc(N3CCOCC3)nn12 [Example 1, N-[(1H-benzimidazol-2-yl)methyl]-7-bromo-2-(morpholin-4-yl)imidazo[2,1-f][1,2,4]triazin-4-amine]	< 3
N#Cc1cnc2c(NCc3nc4ccccc4[nH]3)nc(N3CCOCC3)nn12 [Example 2, 4-{[(1H-benzimidazol-2-yl)methyl]amino}-2-(morpholin-4-yl)imidazo[2,1-f][1,2,4]triazine-7-carbonitrile]	5.81
